The NIST ThermoML archive (doi:10.1016/j.fluid.2012.09.019)
Numbers after ± are expanded uncertainties.

Tests used:
[1] = 298.15 K; 101.33 kPa; Liquid; Vibrating tube method
[2] = refractive index (Na D-line) (dimensionless); details: 298.15 K; 101.33 kPa; Liquid; Standard Abbe refractometry

SMILES	mass density [1] [kg/m3]	refractive index [2]
Cc1ccccc1C [1,2-dimethylbenzene]	859.54 ± 0.14	1.4945 ± 0.0008
Cc1cccc(C)c1 [1,3-dimethylbenzene]	859.95 ± 0.14	1.4946 ± 0.0008
Cc1ccc(C)cc1 [1,4-dimethylbenzene]	856.71 ± 0.14	1.4957 ± 0.0008
CCCCCCCCCC [decane]	726.36 ± 0.17	1.4108 ± 0.0008
